Experimental findings from PubChem BioAssay AID2060331 (Molecular Pharmacology Branch, DTP, NCI, 2025) are described below.

“And” between values parts separate entries of the source, which are not always exact repeats. Identical values can stand only once.

This assay has as its system Hs578T multi-cell spheroids, viability. Put plainly: Anticancer human tumor Hs578T cell line growth inhibition [IpAb].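 As to all read-outs here: drug exposure lasted 7 days before readout.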 The conditions noted are these: for viability, T/C: stronger effect = lower value. In short, it runs like this: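 Spheroids of 60% malignant cells, 25% HUVEC and 15% MSC were exposed to targeted agents combined with ipatasertib or abemaciclib. Doses started at or near clinical Cmax (10 microM when unknown) and fell in half-log steps.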

The mark [1] stands for this setting: curve of first compound, second compound 0.1 µM.
Setting [2] is: curve of first compound, second compound 0.316 µM.
The mark [3] stands for this setting: curve of first compound, second compound 1 µM.
Setting [4] is: curve of first compound, second compound 3.16 µM.
Where [5] appears, read: curve of first compound, second compound 10 µM.
Setting [6] is: second compound 0.1 µM, first compound 0.0316 µM.
[7] abbreviates: second compound 0.1 µM, first compound 0.1 µM.
Where [8] appears, read: second compound 0.1 µM, first compound 0.316 µM.
[9] abbreviates: second compound 0.1 µM, first compound 1 µM.
Where [10] appears, read: second compound 0.316 µM, first compound 0.0316 µM.
The mark [11] stands for this setting: second compound 0.316 µM, first compound 0.1 µM.
Setting [12] is: second compound 0.316 µM, first compound 0.316 µM.
Setting [13] is: second compound 0.316 µM, first compound 1 µM.
[14] abbreviates: second compound 1 µM, first compound 0.0316 µM.
Setting [15] is: second compound 1 µM, first compound 0.1 µM.
The mark [16] stands for this setting: second compound 1 µM, first compound 0.316 µM.
The mark [17] stands for this setting: second compound 1 µM, first compound 1 µM.
The mark [18] stands for this setting: second compound 3.16 µM, first compound 0.0316 µM.
Where [19] appears, read: second compound 3.16 µM, first compound 0.1 µM.
[20] abbreviates: second compound 3.16 µM, first compound 0.316 µM.
[21] abbreviates: second compound 3.16 µM, first compound 1 µM.
[22] abbreviates: second compound 10 µM, first compound 0.0316 µM.
[23] abbreviates: second compound 10 µM, first compound 0.1 µM.
[24] abbreviates: second compound 10 µM, first compound 0.316 µM.
[25] abbreviates: second compound 10 µM, first compound 1 µM.

With `COc1c(OCCCN2CCOCC2)ccc2c3n(c(=NC(=O)c4cnc(N)nc4)nc12)CCN3` + CC(C)NCC(C(=O)N1CCN(c2ncnc3c2C(C)CC3O)CC1)c1ccc(Cl)cc1, the 50% inhibitory concentration (IC50) (in general, the concentration at which inhibition is half-maximal) was 33.2 nM under setting [1]; 18.8 nM under setting [2]; 8.74 nM under setting [3]; 3.84 nM under setting [4]; less than 3.16 nM under setting [5]. The viability, T/C (as a rule, the ratio of treated to control) is 90.4% (second compound 0.1 µM, first compound 0.00316 µM); 76.8% (second compound 0.1 µM, first compound 0.01 µM); 47.4% under setting [6]; 31% under setting [7]; 15% under setting [8]; 5.13% under setting [9]. Moreover, the viability, T/C was 81.7% (second compound 0.316 µM, first compound 0.00316 µM); 56.4% (second compound 0.316 µM, first compound 0.01 µM); 43.5% under setting [10]; 27% under setting [11]; 14.7% under setting [12]; 5.04% under setting [13]. Also, the viability, T/C reads like this: (second compound 1 µM, first compound 0.00316 µM) 57.7%; (second compound 1 µM, first compound 0.01 µM) 50%; under setting [14], 36.6%; under setting [15], 24.9%; under setting [16], 14.8%; under setting [17], 5.35%. In addition, the viability, T/C by setting is: (second compound 3.16 µM, first compound 0.00316 µM) 51.3%; (second compound 3.16 µM, first compound 0.01 µM) 44.5%; under setting [18], 39.3%; under setting [19], 25.2%; under setting [20], 15.1%; under setting [21], 5%. In addition, the viability, T/C reads like this: (second compound 10 µM, first compound 0.00316 µM) 45.5%; (second compound 10 µM, first compound 0.01 µM) 43.9%; under setting [22], 33.6%; under setting [23], 20.3%; under setting [24], 13.2%; under setting [25], 3.28%.
Turning to `CC(C)n1nc(-c2ccc3oc(N)nc3c2)c2c(N)ncnc21`, the viability, T/C reads like this: (compound 0.000316 µM) 95.3% and 94.5%; (compound 0.001 µM) 92.4% and 104%; (compound 0.00316 µM) 74.8% and 76.7%; (compound 0.01 µM) 43.1% and 49.1%; (compound 0.0316 µM) 20.7% and 20.5%; (compound 0.1 µM) 15.8% and 14.6%. The concentration for half-maximal inhibition (IC50) (curve of compound) was 7.72 nM and 9.02 nM.
For `CCCS(=O)(=O)Nc1ccc(F)c(C(=O)c2c[nH]c3ncc(-c4ccc(Cl)cc4)cc23)c1F`, the viability, T/C (compound 0.0316 µM) was 95.3% and 98.5%; the viability, T/C (compound 0.1 µM) is 101% and 109%; the viability, T/C (compound 0.316 µM) is 109% and 105%; the viability, T/C (compound 1 µM) is 96.1% and 102%; the viability, T/C (compound 3.16 µM) is 81.1% and 85.8%; the viability, T/C (compound 10 µM) was 12.5% and 11.4%. In addition, for the setting “curve of compound”, the 50% inhibitory concentration (IC50) is 5310 nM and 5510 nM.
Consider `CCCS(=O)(=O)Nc1ccc(F)c(C(=O)c2c[nH]c3ncc(-c4ccc(Cl)cc4)cc23)c1F` + CC(C)NCC(C(=O)N1CCN(c2ncnc3c2C(C)CC3O)CC1)c1ccc(Cl)cc1, for which the IC50 under setting [1] came out at 4680 nM; the half-maximal inhibitory concentration (IC50) under setting [2] is 3600 nM; the IC50 under setting [3] was 3170 nM; the half-maximal inhibitory concentration (IC50) under setting [4] came to 1350 nM; the half-maximal inhibitory concentration (IC50) under setting [5] is less than 31.6 nM. The viability, T/C by setting is: under setting [6], 97.9%; under setting [7], 95.8%; under setting [8], 92.3%; under setting [9], 89.9%; (second compound 0.1 µM, first compound 3.16 µM) 71.2%; (second compound 0.1 µM, first compound 10 µM) 9.19%. Moreover, the viability, T/C is, setting by setting: under setting [10], 94.8%; under setting [11], 83.4%; under setting [12], 88.3%; under setting [13], 82.6%; (second compound 0.316 µM, first compound 3.16 µM) 55.3%; (second compound 0.316 µM, first compound 10 µM) 7.94%. The viability, T/C reads like this: under setting [14], 69.2%; under setting [15], 71.2%; under setting [16], 74.1%; under setting [17], 68.1%; (second compound 1 µM, first compound 3.16 µM) 50.1%; (second compound 1 µM, first compound 10 µM) 4.41%. Moreover, the viability, T/C by setting is: under setting [18], 56.5%; under setting [19], 57.8%; under setting [20], 51%; under setting [21], 55.3%; (second compound 3.16 µM, first compound 3.16 µM) 35.8%; (second compound 3.16 µM, first compound 10 µM) 2.97%. For the same compound, the viability, T/C is 48.3% under setting [22]; 45.1% under setting [23]; 49.5% under setting [24]; 38.6% under setting [25]; 27.5% (second compound 10 µM, first compound 3.16 µM); 0.51% (second compound 10 µM, first compound 10 µM).
